Experimental data taken from article PMC8589421, “Impact of Type II LRRK2 inhibitors on signaling and mitophagy” (Biochemical Journal, 2021).
Where two headings read alike, the source gives them in different places.

What was measured:
[1] = test system: Dundee panel of 140 protein kinases; assay: Kinase profiling; format: biochemical
Text: […] Results for each kinase are presented as the mean kinase activity ±S.D. for an assay undertaken in duplicate relative to a control kinase assay in which the inhibitor was omitted. Abbreviations and assay conditions used for each kinase are available (http://www.kinase-screen.mrc.ac.uk/services/premier-screen).

[2] = test system: LRRK2 mediated phosphorylation of Rab10 at Thr73; assay: Rab10 Thr73 phospho-immunoblot in wild-type MEFs; format: cell-based, mouse; settings: Mus musculus, 2 h
Protocol: (§1) Wild-type and homozygous LRRK2 [R1441C] […] All cells were grown at 37°C, 5% (by vol) CO2 in a humidified atmosphere and regularly tested for mycoplasma contamination.
(§2) Inhibitors were dissolved in dimethyl sulfoxide (DMSO) (Sigma, #D2650). The inhibitors were diluted 1000× into cell medium. The equivalent volume of DMSO was added to the minus inhibitor controls. Experiments were performed in six-well plates, 10 cm dishes or 15 cm dishes depending on the amount of cell extract required.
(§3) Lysates were incubated on ice for 30 min and clarified by centrifugation at 20 800×g at 4°C for 20 min. Supernatants were quantified by Bradford assay (Bio-Rad Protein Assay Dye Reagent Concentrate #5000006) and samples prepared in 1× lithium dodecyl sulfate sample buffer final concentration (NuPage LDS Sample buffer 4× Invitrogen, #NP0008). When not deployed immediately, lysates were snap-frozen in liquid nitrogen and stored at −80°C until use.
(§4) Cell extracts were mixed with a quarter of a volume of NuPage LDS Sample buffer 4× Invitrogen and heated at 95°C for 5 min. […] At the end of electrophoresis, proteins were electrophoretically transferred onto the nitrocellulose membrane (GE Healthcare, Amersham Protran Supported 0.45 µm NC) at 100 V for 90 min on ice in the transfer buffer (48 mM Tris–HCl and 39 mM glycine supplemented with 20% methanol). Transferred membrane was blocked with 5% (w/v) skim milk powder dissolved in TBS-T [20 mM Tris–HCl, pH 7.5, 150 mM NaCl and 0.1% (v/v) Tween 20] at room temperature for 1 h. The membrane was typically cropped into three pieces, namely the ‘top piece’ (from the top of the membrane to 75 kDa), the ‘middle piece’ (between 75 and 30 kDa) and the ‘bottom piece’ (from 30 kDa to the bottom of the membrane). All primary antibodies were used at 1 μg/ml final concentration and incubated in TBS-T containing 5% (by mass) bovine serum albumin with exception of α-tubulin and GAPDH antibodies that were diluted 1 : 5000 and 1 : 2000, respectively. The top piece was incubated with the indicated rabbit anti-LRRK2 phosphorylation site antibody multiplexed with mouse anti-LRRK2 C-terminus total antibody. The middle piece was incubated with mouse anti-GAPDH or anti-α-tubulin antibody. The bottom pieces were incubated with indicated total and phospho-Rab antibodies. Membranes were incubated in primary antibody overnight at 4°C. Prior to secondary antibody incubation, membranes were washed three times with TBS-T for 10 min each. […] Membranes were washed with TBS-T for three times with a 10 min incubation for each wash. Protein bands were acquired via near infrared fluorescent detection using the Odyssey CLx imaging system and quantified using the Image Studio software.

[3] = test system: LRRK2 at Ser935; assay: LRRK2 Ser935 phospho-immunoblot in wild-type MEFs; format: cell-based, mouse; settings: MEFs, 2 h dose response
Protocol: as §1, §2, §3, §4

[4] = test system: Rab10 pThr73, LRRK2 [R1441C]; assay: Rab10 Thr73 phospho-immunoblot in LRRK2[R1441C] knock-in MEFs; format: cell-based, mouse; settings: Mus musculus, 2 h, read-out: LRRK2 [R1441C] Rab10 pThr73 IC50
Protocol: (§5) Wild-type and homozygous LRRK2 [R1441C] (Jax, stock number: 009346), LRRK2[G2019S] Taconic, (model 13940) and LRRK2 [A2016T] (Jax, stock number: 021828)[7] knock-in MEF cells were isolated from littermate-matched mouse embryos on a C57BL/6J background at day E12.5 as described previously. MEFs were grown in Dulbecco's modified Eagle medium (DMEM GIBCO, #11960-085) containing 10% (by vol) fetal bovine serum (FBS), 2 mM L-glutamine, 100 U/ml penicillin, and […] streptomycin supplemented with non-essential amino acids and 1 mM sodium pyruvate. Human embryonic kidney 293 (HEK293) (#ATCC CRL-1573) and HeLa (#ATCC CCL-2) cells were purchased from American Tissue Culture Collection (ATCC) and cultured in DMEM containing 10% (by vol) FBS, 2 mM L-glutamine, 100 U/ml penicillin, and […] streptomycin. All cells were grown at 37°C, 5% (by vol) CO2 in a humidified atmosphere and regularly tested for mycoplasma contamination.
as §2
(§6) Cells were lysed in an ice-cold lysis buffer containing 50 mM Tris–HCl, pH 7.4, 1% (by vol) Triton X-100, 10% (by vol) glycerol, 150 mM NaCl, 1 mM sodium orthovanadate, 50 mM NaF, 10 mM 2-glycerophosphate, 5 mM sodium pyrophosphate, 1 µg/ml microcystin-LR, and cOmplete EDTA-free protease inhibitor cocktail (Roche, #11836170001). Lysates were incubated on ice for 30 min and clarified by centrifugation at 20 800×g at 4°C for 20 min. Supernatants were quantified by Bradford assay (Bio-Rad Protein Assay Dye Reagent Concentrate #5000006) and samples prepared in 1× lithium dodecyl sulfate sample buffer final concentration (NuPage LDS Sample buffer 4× Invitrogen, #NP0008). When not deployed immediately, lysates were snap-frozen in liquid nitrogen and stored at −80°C until use. […]

[5] = test system: Rab10 pThr73, LRRK2 [G2019S]; assay: Rab10 Thr73 phospho-immunoblot in LRRK2[G2019S] knock-in MEFs; format: cell-based, mouse; settings: Mus musculus, 2 h, read-out: LRRK2 [G2019S] Rab10 pThr73 IC50
Protocol: as §5, §2, §6

[6] = test system: LRRK2 Ser935 phosphorylation, LRRK2[R1441C]; assay: LRRK2 Ser935 phospho-immunoblot in LRRK2[R1441C] knock-in MEFs; format: cell-based, mouse; settings: dose and time dependent
Protocol: as §5, §2
Cells were lysed in an ice-cold lysis buffer containing 50 mM Tris–HCl, pH 7.4, 1% (by vol) Triton X-100, 10% (by vol) glycerol, 150 mM NaCl, 1 mM sodium orthovanadate, 50 mM NaF, 10 mM 2-glycerophosphate, 5 mM sodium pyrophosphate, 1 µg/ml microcystin-LR, and cOmplete EDTA-free protease inhibitor cocktail (Roche, #11836170001). Lysates were incubated on ice for 30 min and clarified by centrifugation at 20 800×g at 4°C for 20 min. Supernatants were quantified by Bradford assay (Bio-Rad Protein Assay Dye Reagent Concentrate #5000006) and samples prepared in 1× lithium dodecyl sulfate sample buffer final concentration (NuPage LDS Sample buffer 4× Invitrogen, #NP0008). When not deployed immediately, lysates were snap-frozen in liquid nitrogen and stored at −80°C until use.
Cell extracts were mixed with a quarter of a volume of NuPage LDS Sample buffer 4× Invitrogen and heated at 95°C for 5 min. […] At the end of electrophoresis, proteins were electrophoretically transferred onto the nitrocellulose membrane (GE Healthcare, Amersham Protran Supported 0.45 µm NC) at 100 V for 90 min on ice in the transfer buffer (48 mM Tris–HCl and 39 mM glycine supplemented with 20% methanol). Transferred membrane was blocked with 5% (w/v) skim milk powder dissolved in TBS-T [20 mM Tris–HCl, pH 7.5, 150 mM NaCl and 0.1% (v/v) Tween 20] at room temperature for 1 h. […]

[7] = test system: Rab10 phosphorylation, LRRK2[A2016T]; assay: Rab10 Thr73 phospho-immunoblot in inhibitor resistant LRRK2[A2016T] knock-in MEFs; format: cell-based, mouse; settings: 2 h, up to 3 µM
Protocol: as §5, §2, §6

[8] = test system: mouse embryonic fibroblast cells (MEFs); assay: Cell morphology and attachment of MEFs; format: cell-based

Structure (SMILES) | number of the 140 kinases assayed suppressed by over 80% ([1]; 1 μM inhibitor) | IC50 ([2]; read-out: LRRK2 WT Rab10 pThr73 IC50, wild type MEFs littermate matched to LRRK2[G2019S], 2 h, panel (B)) [µM] | IC50 ([2]; read-out: LRRK2 WT Rab10 pThr73 IC50, wild type MEFs littermate matched to LRRK2[R1441C], 2 h, panel (A)) [µM] | effect on LRRK2 Ser935 phosphorylation [3] | IC50 [4] [µM] | IC50 [5] [µM] | effect on Ser935 phosphorylation in LRRK2[R1441C] knock-in cells [6] | effect of A2016T mutation on inhibition of Rab10 phosphorylation [7] | number of the 140 kinases assayed suppressed by over 80% ([1]; 0.1 μM inhibitor) | inhibition at 10 µM ([2]; wild-type MEFs, 10 μM) [%] | concentration that impacted cell morphology and attachment [8]
CNC(=O)c1cc(Oc2ccc(NC(=O)Nc3cc(C(C)(C)C)nn3-c3ccc4ncccc4c3)c(F)c2)ccn1 [Rebastinib] | 18 | 0.478 | 0.539 | did not induce dephosphorylation of Ser935 | 1.31 | 1.07 | rescue Ser935 phosphorylation | markedly blocked | – | – | –
C[C@@H]1CN(c2cc(-c3n[nH]c4ccc(OC5(C)CC5)cc34)ncn2)C[C@H](C)O1 [MLi-2] | – | – | – | complete dephosphorylation | – | – | – | markedly suppressed inhibition of Rab10 phosphorylation | – | – | –
Cc1ccc(C(=O)Nc2ccc(CN3CCN(C)CC3)c(C(F)(F)F)c2)cc1C#Cc1cnc2cccnn12 [Ponatinib] | 20 | – | – | without affecting Ser935 phosphorylation | – | – | – | – | 14 | ~50 | above 10 μM
